The text below walks through data of PubChem BioAssay AID1996.

≈ marks a conversion by molar mass, not a printed value. Where only a bound is given, the exact number is not on record here.

For this data set the following is noted: buffer; pH 7.4; 200.0 µM.
The solubility (kinetic) is solubility judged after dilution from a stock solution rather than from solid. In the case of `Cc1cccc(NC(=O)CN(CC2CCCO2)C(=O)c2cc(S(=O)(=O)N(C)C)ccc2F)c1C` (stereo unspecified), the kinetic solubility is > 73.7 µg/mL. The value for `Cc1oc(-c2ccccc2)cc1C(=O)NCc1ccncc1` was 36.7 µg/mL (≈ 126 µM). The value for `Nc1nc2sc3c(c2cc1C(=O)NCC(=O)O)CCCC3` was > 45.8 µg/mL; that for `CC(C)N(Cc1ccccc1)C(=O)COC(=O)c1cc(S(=O)(=O)N(C)C)ccc1N1CCCC1` was 7.5 µg/mL (≈ 15.4 µM). Regarding `O=[N+]([O-])c1ccccc1S(=O)(=O)N1CCN(Cc2ccccc2)CC1`, the kinetic solubility came out at 24.4 µg/mL (≈ 67.5 µM). As to `CC(C)(C)c1ccc(C(=O)N2CCC(C(=O)NC3CC3)CC2)cc1`, the kinetic solubility came out at 48 µg/mL (≈ 146 µM).

`CCCCc1noc(-c2c(-c3ccccc3Cl)noc2C)n1` showed a solubility (kinetic) of 0.6 µg/mL (≈ 1.89 µM). Compared with the last molecule, the solubility kinetic is about 80-fold lower. The value for `COc1ccccc1N1CCN(CCN2C(=O)C3CCCCN3C2=O)CC1` (stereo unspecified) was 40.8 µg/mL (≈ 110 µM); that for `Nc1nccc(/C=C/c2ccc(Cl)cc2)n1` was 3.2 µg/mL (≈ 13.8 µM); that for `CCOc1ccccc1NC(=O)NCCCCc1ccccc1` was < 0.3 µg/mL. Consider `COc1ccc(NC(=S)NCc2cccnc2)cc1OC`, for which the solubility (kinetic) was > 45.5 µg/mL. The result for `COc1cc(C)c(NC(=O)C(=S)NCc2ccccc2)cc1C` reads < 0.4 µg/mL; that for `CCN(CC)CC(=O)Nc1ccc(C)cc1C(=O)c1ccccc1`, > 48.7 µg/mL. Consider `O=C(COc1ccccc1)N1CCN=C1SCc1ccccc1`, for which the kinetic solubility was 14.3 µg/mL (≈ 43.8 µM). The result for `CCOC(=O)c1c(C)[nH]c(C(=O)COC(=O)c2ccc([N+](=O)[O-])o2)c1C` reads 4.4 µg/mL (≈ 12.1 µM); that for `Fc1ccccc1COc1ccc(C(=S)N2CCCC2)cc1`, 3.5 µg/mL (≈ 11.1 µM). The result for `COc1ccc(NC(=O)Nc2ccc3c(c2)OCO3)c(C)c1` reads 1.2 µg/mL (≈ 4 µM). The value for `C=CCN1C(=O)C(Cc2ccccc2Cl)SC1=Nc1ccc(C(=O)O)cc1` (stereo unspecified) was > 60.1 µg/mL; that for `Cc1cccc(Cn2c(C)nc3ccc([N+](=O)[O-])cc3c2=O)c1` was 3.6 µg/mL (≈ 11.6 µM).

As to `O=C(Nc1ccccc1)/C(=C\c1ccc(F)cc1)NC(=O)c1ccco1`, the kinetic solubility came to 2 µg/mL (≈ 5.71 µM). The value for `COc1ccc(N2CCN(CC(=O)NCc3ccccc3)CC2)cc1` was > 50.9 µg/mL; that for `Cc1ccccc1NC(=O)NCc1ccccn1` was > 36.2 µg/mL; that for `CN(C)/C=C/C(=O)c1ccc(Br)s1` was > 39 µg/mL. The result for `O=C(OCC(=O)N1CCN(c2ccccc2)CC1)c1ccc([N+](=O)[O-])s1` reads 7.1 µg/mL (≈ 18.9 µM); that for `COc1ccccc1C(=O)Nc1ccc(NC(=O)c2ccco2)cn1`, 0.7 µg/mL (≈ 2.08 µM).

The molecule `Cc1ccc(C(=O)Nc2ccc(S(=O)(=O)N3CCCC3)cc2)s1` came in with a solubility (kinetic) of 7.2 µg/mL (≈ 20.5 µM). The result for `Cc1cccc(OCC(=O)NCC(=O)N/N=C/c2cccnc2)c1` reads > 49 µg/mL; that for `Cc1noc(C)c1COC(=O)COc1ccc(C#N)cc1`, > 42.9 µg/mL. The value for `O=C(OC(C(=O)NC1CCCCC1)c1ccccc1F)c1ccco1` (stereo unspecified) was 41.6 µg/mL (≈ 120 µM). The value for `CCc1nonc1NC(=O)c1oc2ccc(Cl)cc2c1C` was < 0.2 µg/mL. `CNC(=O)Nc1cccc(-c2cc(-c3c(Cl)cccc3Cl)no2)c1`: the solubility (kinetic) was < 0.3 µg/mL.

`CC1=Nc2ccc(C)cc2/C1=C/c1c(N)n2oc(C)cc2nc1=O` came in with a solubility (kinetic) of 0.6 µg/mL (≈ 1.87 µM). The result for `CCCCCCCCNC1=CC(=O)CC(C)(C)C1` reads 12.5 µg/mL (≈ 49.7 µM).

For `O=C(COC(=O)Cc1ccccc1F)NCc1ccc(Cl)cc1`, the solubility (kinetic) was 17.5 µg/mL (≈ 52.1 µM). Molecule `CCc1ccc(N2C(=O)C3CCCN3C2=S)cc1` (stereo unspecified) returned a kinetic solubility of 29.4 µg/mL (≈ 113 µM). The value for `CCOC(=O)c1ccc(S(=O)(=O)N2CCN(CCc3ccncc3)CC2)cc1` was > 60.5 µg/mL. The result for `CN1CCCN(C(=O)c2ccc(Cl)cc2)CC1` reads 32.9 µg/mL (≈ 130 µM); that for `Nc1ccc([As](=O)(O)O)cc1`, > 32.6 µg/mL; that for `Br.CC(=O)c1cccc(Nc2nc(-c3ccccc3)cs2)c1`, 2.1 µg/mL.

Take `COc1ccc(/C=C(\C#N)C(=O)N2COCC2(C)C)cc1`: the solubility (kinetic) is > 42.9 µg/mL. The molecule `CC(C)Oc1cccc(C(=O)C2CCCN(C(=O)c3ccoc3)C2)c1` (stereo unspecified) yielded a kinetic solubility of 32.3 µg/mL (≈ 94.6 µM). The value for `CCOc1ccc(CNCCN2CCCC2)cc1.O=C(O)C(=O)O` was 28.2 µg/mL. The result for `Cc1oc2c(cc(NS(=O)(=O)c3ccc(Cl)cc3)c3ccccc32)c1C(=O)O` reads > 62.4 µg/mL; that for `Nn1c(C2CCC2)nc2ccccc2c1=O`, > 32.3 µg/mL; that for `CC(=O)C1=C(O)C(=O)N(c2ccccn2)C1c1ccccc1[N+](=O)[O-]` (stereo unspecified), > 50.9 µg/mL. The result for `Cc1ccc(S(=O)(=O)N2CCCN(C)CC2)cc1.Cl` reads > 45.7 µg/mL. With `O=C(Nc1ccc(C(=O)c2ccccc2)cc1)c1ccccc1`, the solubility (kinetic) is < 0.6 µg/mL. Molecule `O=C(CCl)N(c1ccccc1)C1CCCCC1` registered a solubility (kinetic) of 36.6 µg/mL (≈ 145 µM). The value for `O=C(Nc1ccc2c(c1)Cc1ccccc1-2)c1cccnc1` was 1.4 µg/mL (≈ 4.89 µM); that for `CN(CC(=O)Nc1cccc(F)c1)C(=O)c1ccc(OCc2cn3ccccc3n2)cc1` was 9.2 µg/mL (≈ 21.3 µM). `CCCCN(C)CCNC(=O)C(NC(=O)C1CCC(C)CC1)C(C)C` (stereo unspecified): the kinetic solubility is > 53 µg/mL.
